# In patent US11840686B2, “Modulation of prekallikrein (PKK) expression” (Ionis Pharmaceuticals, Inc., priority 2013, dated 2023):
# Strand notation (5' to 3'): a small letter for the sugar, then the base; units joined by * are phosphorothioate-linked, units joined directly phosphodiester-linked; [ ] holds rarer units or linkages, { } end groups; capitals alone tell only the bases. e = 2'-O-(2-methoxyethyl) (MOE); [5mC] = 5-methylcytosine; d = 2'-deoxy (DNA)
# Tested on: human PKK mRNA
# Experiment: Antisense inhibition of human PKK mRNA in HepaRG cells, 5,000 nM (Example 2)
# Format: cell-based
# Conditions: HepaRG cells, electroporation with 5,000 nM antisense oligonucleotide, approximately 24 hours, PKK mRNA by RT-PCR (RTS3454), relative to untreated control cells; Table 6 experiment
# Outline: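 HepaRG cells (20,000/well) electroporated with 5,000 nM MOE gapmer (phosphorothioate backbone, 5-methylcytosines) and harvested after ~24 h. PKK mRNA measured by qRT-PCR with primer probe set RTS3454, normalized to RIBOGREEN total RNA; percent inhibition versus untreated cells.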
row,Substance,% inhibition [%]
1,547357 (e[5mC]*eT*eT*eT*eA*dA*dT*dA*dG*dG*d[5mC]*dA*dA*dT*dT*eG*eT*eT*e[5mC]*e[5mC]; antisense) [compound 547357],78
2,547359 (e[5mC]*eG*eG*eG*eA*d[5mC]*dT*dG*dT*dA*d[5mC]*dT*dT*dT*dA*eA*eT*eA*eG*eG; antisense) [compound 547359],81
3,547361 (eG*e[5mC]*eA*eA*e[5mC]*d[5mC]*dA*dA*dT*dT*dT*d[5mC]*dT*dG*dA*eA*eA*eG*eG*eG; antisense) [compound 547361],46
4,547362 (e[5mC]*eA*eA*e[5mC]*eA*dT*d[5mC]*d[5mC]*dA*d[5mC]*dA*dT*d[5mC]*dT*dG*eA*eG*eA*eA*e[5mC]; antisense) [compound 547362],47
5,547363 (eG*eG*e[5mC]*eA*eA*d[5mC]*dA*dT*d[5mC]*d[5mC]*dA*d[5mC]*dA*dT*d[5mC]*eT*eG*eA*eG*eA; antisense) [compound 547363],84

# Same assay, conditions: Table 7; HepaRG cells, electroporation with 5,000 nM antisense oligonucleotide, approx. 24 hours; PKK mRNA by RT-PCR (RTS3454), relative to untreated control cells
row,Substance,% inhibition [%]
1,547365 (eT*eG*eA*eG*eA*dA*d[5mC]*d[5mC]*d[5mC]*dT*dG*dG*d[5mC]*dA*dA*e[5mC]*eA*eT*e[5mC]*e[5mC]; antisense) [compound 547365],81
2,547367 (eA*eT*e[5mC]*eT*eG*dG*dA*dG*dT*dG*dA*dG*dA*dA*d[5mC]*e[5mC]*e[5mC]*eT*eG*eG; antisense) [compound 547367],76
3,547369 (eA*eA*eG*e[5mC]*eA*dT*d[5mC]*dT*dG*dG*dA*dG*dT*dG*dA*eG*eA*eA*e[5mC]*e[5mC]; antisense) [compound 547369],76
4,547370 (e[5mC]*eA*eA*eA*eA*dG*d[5mC]*dA*dT*d[5mC]*dT*dG*dG*dA*dG*eT*eG*eA*eG*eA; antisense) [compound 547370],73
5,547371 (eA*eT*eG*eG*eT*d[5mC]*d[5mC]*dG*dA*d[5mC]*dA*d[5mC]*dA*d[5mC]*dA*eA*eA*eA*eG*e[5mC]; antisense) [compound 547371],66
6,547372 (eG*eA*eT*eG*eG*dT*d[5mC]*d[5mC]*dG*dA*d[5mC]*dA*d[5mC]*dA*d[5mC]*eA*eA*eA*eA*eG; antisense) [compound 547372],32
7,547375 (eG*eT*eG*eA*eT*dA*dG*dG*dT*dG*d[5mC]*dA*dG*dA*dT*eG*eG*eT*e[5mC]*e[5mC]; antisense) [compound 547375],72
8,547376 (eG*eA*eA*eT*eG*dT*dA*dA*dA*dG*dA*dA*dG*dA*dG*eG*e[5mC]*eA*eG*eT; antisense) [compound 547376],43
9,547377 (e[5mC]*eA*eT*eT*eT*dG*dT*dA*dT*dA*dG*dA*dA*dT*dG*eT*eA*eA*eA*eG; antisense) [compound 547377],6
10,547378 (eT*eA*e[5mC]*eA*eT*dT*dT*dG*dT*dA*dT*dA*dG*dA*dA*eT*eG*eT*eA*eA; antisense) [compound 547378],0
11,547379 (e[5mC]*eT*e[5mC]*eG*eA*dT*dT*dT*dT*d[5mC]*d[5mC]*dA*dT*dA*d[5mC]*eA*eT*eT*eT*eG; antisense) [compound 547379],37
12,547380 (eT*eG*eA*e[5mC]*eT*d[5mC]*dG*dA*dT*dT*dT*dT*d[5mC]*d[5mC]*dA*eT*eA*e[5mC]*eA*eT; antisense) [compound 547380],42
13,547381 (eT*eG*eT*eG*eA*d[5mC]*dT*d[5mC]*dG*dA*dT*dT*dT*dT*d[5mC]*e[5mC]*eA*eT*eA*e[5mC]; antisense) [compound 547381],49
14,547382 (e[5mC]*eT*eT*eT*eG*dT*dG*dA*d[5mC]*dT*d[5mC]*dG*dA*dT*dT*eT*eT*e[5mC]*e[5mC]*eA; antisense) [compound 547382],62
15,547383 (eT*eT*e[5mC]*eT*eT*dT*dG*dT*dG*dA*d[5mC]*dT*d[5mC]*dG*dA*eT*eT*eT*eT*e[5mC]; antisense) [compound 547383],37
16,547384 (eA*eA*eA*e[5mC]*eA*dT*dT*dT*d[5mC]*dT*dT*dT*dG*dT*dG*eA*e[5mC]*eT*e[5mC]*eG; antisense) [compound 547384],50

row,Substance,% inhibition [%]
1,547385 (eT*eG*eT*eG*e[5mC]*d[5mC]*dA*d[5mC]*dT*dT*dT*d[5mC]*dA*dG*dA*eT*eG*eT*eT*eT; antisense) [compound 547385],80
2,547386 (eA*e[5mC]*eT*eT*eG*dG*dT*dG*dT*dG*d[5mC]*d[5mC]*dA*d[5mC]*dT*eT*eT*e[5mC]*eA*eG; antisense) [compound 547386],78
3,547387 (eT*eG*eG*eT*eG*dT*dT*dT*dT*d[5mC]*dT*dT*dG*dA*dG*eG*eA*eG*eT*eA; antisense) [compound 547387],73
4,547388 (eT*eA*eT*eG*eG*dT*dG*dT*dT*dT*dT*d[5mC]*dT*dT*dG*eA*eG*eG*eA*eG; antisense) [compound 547388],55
5,547389 (e[5mC]*eA*eG*eA*eT*dA*dT*dG*dG*dT*dG*dT*dT*dT*dT*e[5mC]*eT*eT*eG*eA; antisense) [compound 547389],61
6,547390 (eA*eT*e[5mC]*e[5mC]*eA*dG*dA*dT*dA*dT*dG*dG*dT*dG*dT*eT*eT*eT*e[5mC]*eT; antisense) [compound 547390],63
7,547391 (eA*eT*eA*eT*e[5mC]*d[5mC]*dA*dG*dA*dT*dA*dT*dG*dG*dT*eG*eT*eT*eT*eT; antisense) [compound 547391],32
8,547392 (eA*eA*eG*eG*e[5mC]*dT*dA*dT*dA*dT*d[5mC]*d[5mC]*dA*dG*dA*eT*eA*eT*eG*eG; antisense) [compound 547392],81
9,547393 (eT*eG*e[5mC]*eA*eG*dG*dT*dT*dA*dA*dA*dA*dG*dG*d[5mC]*eT*eA*eT*eA*eT; antisense) [compound 547393],73
10,547394 (eT*eT*eT*eG*e[5mC]*dA*dG*dG*dT*dT*dA*dA*dA*dA*dG*eG*e[5mC]*eT*eA*eT; antisense) [compound 547394],29
11,547395 (eA*eA*eG*eT*eT*d[5mC]*dT*dT*dT*dT*dG*d[5mC]*dA*dG*dG*eT*eT*eA*eA*eA; antisense) [compound 547395],15
12,547396 (eT*e[5mC]*eA*eG*eG*dT*dA*dA*dA*dG*dT*dT*d[5mC]*dT*dT*eT*eT*eG*e[5mC]*eA; antisense) [compound 547396],49
13,547397 (eG*eT*eT*e[5mC]*eA*dG*dG*dT*dA*dA*dA*dG*dT*dT*d[5mC]*eT*eT*eT*eT*eG; antisense) [compound 547397],27
14,547398 (e[5mC]*eA*eG*eG*eG*dT*dT*d[5mC]*dA*dG*dG*dT*dA*dA*dA*eG*eT*eT*e[5mC]*eT; antisense) [compound 547398],16
15,547399 (eG*e[5mC]*eA*eG*eG*dG*dT*dT*d[5mC]*dA*dG*dG*dT*dA*dA*eA*eG*eT*eT*e[5mC]; antisense) [compound 547399],10
16,547400 (eT*eG*eG*e[5mC]*eA*dG*dG*dG*dT*dT*d[5mC]*dA*dG*dG*dT*eA*eA*eA*eG*eT; antisense) [compound 547400],0
